Results published in ChEMBL document CHEMBL1201862, “PubChem BioAssay data set” (2004).
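Briefly, cells in 96-well plates were exposed to five compound concentrations for 48 h, and endpoints were estimated by linear interpolation. GI50 marks 50% less growth.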 Activity calls are given as the source filed them. Rule as the data show it: active = GI50 up to about 1.1 µM and inactive = higher.

Experiments:
Assay in all cases: growth of human tumour cells (NCI), 48 h
A498 = system: A498
BT-549 = system: BT-549
COLO 205 = system: COLO 205
EKVX = system: EKVX
HCT-116 = system: HCT-116
HCT-15 = system: HCT-15
HT-29 = system: HT-29
IGROV-1 = system: IGROV-1
KM12 = system: KM12
M14 = system: M14
MCF7 = system: MCF7
MDA-MB-231 = system: MDA-MB-231
NCI-H226 = system: NCI-H226
OVCAR-5 = system: OVCAR-5
PC-3 = system: PC-3
RXF 393 = system: RXF 393
SF-539 = system: SF-539
SK-MEL-28 = system: SK-MEL-28
SW-620 = system: SW-620
T47D = system: T47D

O=C(CC(=O)c1ccncc1)c1ccccc1
GI50 (A498): > 100 µM (inactive)
GI50 (BT-549): > 100 µM (inactive)
GI50 (COLO 205): > 100 µM (inactive)
GI50 (EKVX): > 64.3 µM (inactive)
GI50 (HCT-116): 75.2 µM (inactive)
GI50 (HCT-15): 35.9 µM
GI50 (HT-29): > 77.8 µM (inactive)
GI50 (IGROV-1): > 100 µM (inactive)
GI50 (KM12): > 100 µM (inactive)
GI50 (M14): 78 µM (inactive)
GI50 (MCF7): > 77.6 µM (inactive)
GI50 (MDA-MB-231): > 100 µM (inactive)
GI50 (NCI-H226): > 100 µM (inactive)
GI50 (OVCAR-5): > 100 µM (inactive)
GI50 (PC-3): > 77.8 µM (inactive)
GI50 (RXF 393): 81.3 µM (inactive)
GI50 (SF-539): 63.5 µM (inactive)
GI50 (SK-MEL-28): > 100 µM (inactive)
GI50 (SW-620): 73.1 µM (inactive)
GI50 (T47D): > 100 µM (inactive)

COc1cc2c(cc1OC)C13CCN4C=C5CCOC6CC(=O)N2C1C6C5CC43 (stereo not given)
GI50 (A498): > 100 µM (inactive)
GI50 (BT-549): > 100 µM (inactive)
GI50 (COLO 205): > 100 µM (inactive)
GI50 (EKVX): > 100 µM (inactive)
GI50 (HCT-116): > 100 µM (inactive)
GI50 (HCT-15): > 100 µM
GI50 (HT-29): > 100 µM (inactive)
GI50 (IGROV-1): > 100 µM (inactive)
GI50 (KM12): > 100 µM (inactive)
GI50 (M14): > 100 µM (inactive)
GI50 (MCF7): > 100 µM (inactive)
GI50 (MDA-MB-231): > 100 µM (inactive)
GI50 (NCI-H226): > 100 µM (inactive)
GI50 (OVCAR-5): > 100 µM (inactive)
GI50 (PC-3): > 100 µM (inactive)
GI50 (RXF 393): > 100 µM (inactive)
GI50 (SF-539): > 100 µM (inactive)
GI50 (SK-MEL-28): > 100 µM (inactive)
GI50 (SW-620): > 100 µM (inactive)
GI50 (T47D): > 100 µM (inactive)

O=c1cc(N2CCCC2)[nH]c(=O)n1-c1ccc(F)cc1
GI50 (A498): > 100 µM (inactive)
GI50 (BT-549): > 100 µM (inactive)
GI50 (COLO 205): > 100 µM (inactive)
GI50 (EKVX): > 100 µM (inactive)
GI50 (HCT-116): > 100 µM (inactive)
GI50 (HCT-15): > 100 µM
GI50 (HT-29): > 100 µM (inactive)
GI50 (IGROV-1): > 100 µM (inactive)
GI50 (KM12): > 100 µM (inactive)
GI50 (M14): > 100 µM (inactive)
GI50 (MCF7): > 100 µM (inactive)
GI50 (MDA-MB-231): > 100 µM (inactive)
GI50 (NCI-H226): 20.3 µM (inactive)
GI50 (OVCAR-5): > 100 µM (inactive)
GI50 (PC-3): > 100 µM (inactive)
GI50 (RXF 393): > 100 µM (inactive)
GI50 (SF-539): > 100 µM (inactive)
GI50 (SK-MEL-28): > 100 µM (inactive)
GI50 (SW-620): > 100 µM (inactive)
GI50 (T47D): > 100 µM (inactive)

COc1ccc(CCCCl)c(C2=NCCc3cc(OC)c(OC)cc32)c1
GI50 (A498): > 100 µM (inactive)
GI50 (BT-549): 37.8 µM (inactive)
GI50 (COLO 205): 25.7 µM (inactive)
GI50 (EKVX): 53.6 µM (inactive)
GI50 (HCT-116): 33 µM (inactive)
GI50 (HCT-15): 71.1 µM
GI50 (HT-29): 36.1 µM (inactive)
GI50 (IGROV-1): 39.9 µM (inactive)
GI50 (KM12): 38.8 µM (inactive)
GI50 (M14): 43.9 µM (inactive)
GI50 (MCF7): 41.5 µM (inactive)
GI50 (MDA-MB-231): 69.3 µM (inactive)
GI50 (NCI-H226): 27.9 µM (inactive)
GI50 (OVCAR-5): > 100 µM (inactive)
GI50 (PC-3): 35.3 µM (inactive)
GI50 (RXF 393): 54.7 µM (inactive)
GI50 (SF-539): 79.3 µM (inactive)
GI50 (SK-MEL-28): 63.2 µM (inactive)
GI50 (SW-620): 72.1 µM (inactive)
GI50 (T47D): 46.1 µM (inactive)

CN(CCCN(C)CCc1ccc(Cl)c(Cl)c1)CCCN1CCCC1
GI50 (A498): 1.76 µM (inactive)
GI50 (BT-549): 6.03 µM (inactive)
GI50 (COLO 205): 2.28 µM (inactive)
GI50 (EKVX): 3.35 µM (inactive)
GI50 (HCT-116): 1.73 µM (inactive)
GI50 (HCT-15): 2.31 µM
GI50 (HT-29): 0.55 µM (active)
GI50 (IGROV-1): 3.11 µM (inactive)
GI50 (KM12): 2.61 µM (inactive)
GI50 (M14): 1.52 µM (inactive)
GI50 (MCF7): 1.78 µM (inactive)
GI50 (MDA-MB-231): 1.33 µM (inactive)
GI50 (NCI-H226): 2.56 µM (inactive)
GI50 (OVCAR-5): 3.3 µM (inactive)
GI50 (PC-3): 3.35 µM (inactive)
GI50 (RXF 393): 1.61 µM (inactive)
GI50 (SF-539): 2.88 µM (inactive)
GI50 (SK-MEL-28): 1.5 µM (inactive)
GI50 (SW-620): 2.26 µM (inactive)
GI50 (T47D): 2.34 µM (inactive)

CCSc1nn(-c2c3ccccc3nc3ccccc23)c(=S)s1
GI50 (A498): > 100 µM (inactive)
GI50 (BT-549): > 100 µM (inactive)
GI50 (COLO 205): > 100 µM (inactive)
GI50 (EKVX): > 100 µM (inactive)
GI50 (HCT-116): > 100 µM (inactive)
GI50 (HCT-15): > 100 µM
GI50 (HT-29): > 100 µM (inactive)
GI50 (IGROV-1): > 100 µM (inactive)
GI50 (KM12): > 100 µM (inactive)
GI50 (M14): > 100 µM (inactive)
GI50 (MCF7): > 100 µM (inactive)
GI50 (MDA-MB-231): > 100 µM (inactive)
GI50 (NCI-H226): > 100 µM (inactive)
GI50 (OVCAR-5): > 100 µM (inactive)
GI50 (PC-3): > 100 µM (inactive)
GI50 (RXF 393): > 100 µM (inactive)
GI50 (SF-539): > 100 µM (inactive)
GI50 (SK-MEL-28): > 100 µM (inactive)
GI50 (SW-620): > 100 µM (inactive)
GI50 (T47D): > 100 µM (inactive)
